Assay results published in patent publication US12674795B2, “Method for peritoneal metastatic cell detection and isolation thereof” (THE UNIVERSITY OF HONG KONG, priority 2019, dated 2026).

What was measured:
[1] = system: P-selectin-Fc; test: Microfluidic perfusion assay of M-CSCs on P-selectin-Fc recombinant protein-coated channels; assay type: cell-based; conditions: for effect on M-CSCs binding/adhesion to P-selectin-Fc: M-CSCs treated before perfusion, result in words
Experimental: (§1) Microfluidic chips were fabricated as described^13. To coat microfluidic channels with selectin recombinant proteins, channels were incubated with 1 μg mL^−1 selectin-Fc recombinant proteins in PBS at 4° C. overnight. To coat microfluidic channels with HPMCs, channels were incubated with 10 μg mL^−1 human fibronectin in serum free medium overnight at 4° C. After wash, the channels were introduced with HPMCs suspension (3.5×10^6 mL^−1) and cultured overnight under C02 incubator at 37° C. To functionally block selectins, HPMCs were incubated with 20 μg mL^−1 anti-E-selectin, anti-P-selectin, anti-L-selectin or isotype antibody at room temperature for 1 h before the assays.
(§2) CSCs of 70-100 μm diameter were collected with cell strainer, fluorescently labeled with CMFDA Celltracker (2.5 μg mL^−1, C7025, Life Technologies) as per manufacturer's instructions for assays. Fluorescently labeled CSCs resuspended in binding buffer (1500 spheroids mL^−1) were perfused into the microfluidic channel through a syringe pump (LongerPump) under desired shear stresses. The viscosity of the binding buffer (0.9 cp) is within the range of viscosity (0.95±0.15 cp) of ascitic fluid in patients with various ascitic etiologies^48. The motion of cancer spheroids was observed under fluorescent microscope (Nikon ECLIPSE Ti) and serial time lapse images (1 image sec^−1) were captured for 30 sec. More than three randomly chosen areas (4× objective) were captured for each treatment.
(§3) The motion of cancer spheroids under flow was analyzed offline using Image J (National Institutes of Health) and used for the classification of interactions as described^49. Briefly, cancer spheroids that tethered to the surface, then detached in the flow were defined as tethering. Cancer spheroids that moved at a velocity below the hydrodynamic velocity for more than one spheroid diameter were defined as rolling. Cancer spheroids that remained stationary for more than one frame during recording were determined as adhesion. Percentage of tethering or adhesion was calculated by dividing the number of tethering or adherent spheroids by the total number of spheroids flew through the field of observation in the 30 sec duration.
(§4) In some experiments, M-CSCs were incubated with or without neuramidase (100 mU, N2876, Sigma-Aldrich), α1-3,4 fucosidase (150 mU, P0769S, New England BioLabs), OSGE (100 μg mL^−1, CLE100, Cedarlane) or PNGase (10 U mL^−1, P0704S, New England BioLabs) according to the manufacturer's instructions for 1 h at 37° C. prior staining. To inhibit sulfation, M-CSCs were incubated with sodium chlorate (25 mM, 403016, Sigma-Aldrich) in serum-free medium for 48 h. To functionally block sLe^x, sLe^a or IGF-1R on M-CSCs, M-CSCs were incubated with CSLEX-1 (10 μg mL^−1, 551344, BD Biosciences), anti-CA19-9 (10 μg mL^−1, ab15146, Abcam), anti-IGF-1R (2 μg mL^−1, 24-60, Invitrogen) or isotype antibodies for 1 h at 37° C., respectively. To remove cell surface glycoprotein, M-CSCs were incubated with Trypsin/EDTA solution (0.05%, 25300054, Gibco) for 5 min and neutralized with the complete medium. To inhibit glycolipid synthesis, M-CSCs were cultured with or without DL-PPMP (2.5 μM, sc-205655, Santa Cruz) in serum-free medium for 5 days. To test the involvement of RTKs in mediating CSCs adhesion, M-CSCs were treated with or without small molecule inhibitors as indicated in the FIG. 13 before perfusion. All CSC perfusion experiments were repeated with HPMCs isolated from at least 3 different patients.

[2] = system: M-CSC-HPMC interaction; test: Microfluidic perfusion assay of M-CSCs on HPMC-coated channels under shear stress; assay type: cell-based, human; conditions: for effect on M-CSCs binding/adhesion to HPMCs: M-CSCs treated before perfusion, result in words
Experimental: as §1, §2, §3, §4

[3] = biological target: P-selectin recombinant protein (Homo sapiens, UniProt P16109); test: Flow adhesion assay of HM and NM cells on P-selectin recombinant protein; assay type: cell-based; conditions: 5 mM EDTA solution, shear stress 1 dynes/cm^2 for 1 min
P-selectin recombinant protein, sequence (P16109 with tags, fused parts or gaps limits assumed, species assumed): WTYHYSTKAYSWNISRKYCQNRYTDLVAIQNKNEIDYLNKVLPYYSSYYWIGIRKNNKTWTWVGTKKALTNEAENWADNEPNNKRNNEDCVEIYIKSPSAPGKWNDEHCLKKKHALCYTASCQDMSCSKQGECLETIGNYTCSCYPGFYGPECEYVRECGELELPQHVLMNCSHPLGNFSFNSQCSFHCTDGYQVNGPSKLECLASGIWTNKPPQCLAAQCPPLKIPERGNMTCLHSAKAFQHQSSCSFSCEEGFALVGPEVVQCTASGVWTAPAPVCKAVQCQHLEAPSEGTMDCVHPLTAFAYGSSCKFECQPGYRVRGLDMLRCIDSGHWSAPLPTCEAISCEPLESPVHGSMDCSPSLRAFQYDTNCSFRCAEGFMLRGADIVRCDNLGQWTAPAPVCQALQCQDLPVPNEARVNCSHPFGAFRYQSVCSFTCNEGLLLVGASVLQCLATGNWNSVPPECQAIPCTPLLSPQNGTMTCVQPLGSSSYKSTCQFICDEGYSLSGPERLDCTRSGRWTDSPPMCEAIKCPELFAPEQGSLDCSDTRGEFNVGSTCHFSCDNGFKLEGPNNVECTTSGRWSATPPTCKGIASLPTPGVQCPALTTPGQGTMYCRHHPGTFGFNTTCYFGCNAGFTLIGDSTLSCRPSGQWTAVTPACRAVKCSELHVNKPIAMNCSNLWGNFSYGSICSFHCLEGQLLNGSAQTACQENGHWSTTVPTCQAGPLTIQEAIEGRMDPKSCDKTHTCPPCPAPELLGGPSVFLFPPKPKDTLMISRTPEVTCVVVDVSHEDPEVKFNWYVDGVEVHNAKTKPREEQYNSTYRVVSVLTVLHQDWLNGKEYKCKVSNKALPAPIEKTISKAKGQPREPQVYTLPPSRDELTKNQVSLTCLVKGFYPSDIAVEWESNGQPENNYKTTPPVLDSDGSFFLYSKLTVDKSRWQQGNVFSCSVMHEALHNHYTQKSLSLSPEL
Text: FIG. 9A-9E show results of flow adhesion assay. (A) Transient velocities of representative cells on P-selectin recombinant protein. Triangles represent a rolling adhesion highly metastatic (HM) cells; Circles represent a non-interaction non-metastatic (NM) cells quickly passed through the channel. […] (B) Rolling percentage of NM and HM cells on P-selectin recombinant protein. (C) Cumulative frequency rolling velocity histograms. (D) Adhesion percentage of NM and HM cells on P-selectin recombinant protein. HM or NM cells were introduced into flow chambers pre-coated with […] P-selectin-Fc chimera or Fc control at shear stress of 0.1 dyne/cm2. Cell movement was observed under microscope and captured with high speed camera. Cancer cells rolling velocity was calculated by dividing moving distance with duration. […] Adhesion was defined as cancer cells stop moving for more than one second during recording. The rolling or adhesion fraction was quantified through dividing the number of rolling or adhesive cells by the total number of cells traveled into the field of observation area for 30 seconds. (E) Adhesion percentage of NM and HM cells on P-selectin-Fc chimera at shear stress of 0.05-0.15 dyne/cm2. Data are presented as mean±S.E.; *P<0.05, **P<0.01.
FIG. 10A-10B show EDTA detachment assay. […] (A) A brightfield microscope image of captured HM cells. […]

[4] = biological target: T1, P-selectin (Mus musculus, UniProt Q01102); test: Adhesion of tumor cells to the mouse peritoneum; assay type: in vivo; conditions: 1 mg kg^-1 i.p. 1 h prior to injection of M-CSCs from SKOV-3 and ovarian cancer patients; NOD/SCID mice
T1 construct: from tissue; host or cells: peritoneum, mesentery and omentum of living NOD/SCID mice
T1 sequence (Q01102 42-768): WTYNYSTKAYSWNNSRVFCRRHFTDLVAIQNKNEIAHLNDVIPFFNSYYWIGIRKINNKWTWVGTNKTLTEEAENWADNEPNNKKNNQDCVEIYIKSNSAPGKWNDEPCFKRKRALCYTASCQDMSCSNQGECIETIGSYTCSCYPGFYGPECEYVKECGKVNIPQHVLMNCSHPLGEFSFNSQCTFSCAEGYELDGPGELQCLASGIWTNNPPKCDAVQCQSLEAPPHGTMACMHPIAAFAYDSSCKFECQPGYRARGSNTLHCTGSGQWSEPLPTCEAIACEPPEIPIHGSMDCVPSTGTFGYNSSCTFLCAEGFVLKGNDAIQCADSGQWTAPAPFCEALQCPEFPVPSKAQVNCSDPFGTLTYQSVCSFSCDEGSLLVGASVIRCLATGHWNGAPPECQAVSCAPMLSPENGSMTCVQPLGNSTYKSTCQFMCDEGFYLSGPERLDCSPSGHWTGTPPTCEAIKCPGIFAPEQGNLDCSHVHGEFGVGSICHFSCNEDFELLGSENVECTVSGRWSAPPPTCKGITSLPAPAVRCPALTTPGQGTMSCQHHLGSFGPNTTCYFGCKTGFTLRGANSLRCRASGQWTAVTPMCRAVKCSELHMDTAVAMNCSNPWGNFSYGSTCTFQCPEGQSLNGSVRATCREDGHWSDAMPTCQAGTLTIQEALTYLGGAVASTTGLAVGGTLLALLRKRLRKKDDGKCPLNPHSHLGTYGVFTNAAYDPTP
Experimental: M-CSCs (1×10^7) derived from SKOV-3 and ovarian cancer patients were fluorescently labeled with CMFDA and i.p. injected into NOD/SCID mice. To inhibit P-selectin, KF38789 (1 mg kg^−1, 2748, Tocris) or vehicle control were injected into the peritoneal cavity of mice 1 h prior to cell injection. Mice were sacrificed after 16 h and the peritoneal cavity was washed with PBS to remove non-adherent cells. Fluorescent signal from adherent tumor cells was acquired in the IVIS Spectrum and peritoneum, mesentery, and omentum were lysed with 1% NP-40 and fluorescence was measured with VICTOR (PerkinElmer).

[5] = shear stress around 1 dynes cm^-2

Row | Compound | effect on M-CSCs binding/adhesion to P-selectin-Fc [1] | effect on M-CSCs binding/adhesion to HPMCs [2] | detachment of adherent M-CSCs from P-selectin chimera [1, 5] | detachment of adherent M-CSCs from HPMCs [2, 5] | detachment of captured HM cells from P-selectin-coated channel bottom [3] | extent of tumor metastases on the omentum, mesenteries and peritoneal wall [4]
1 | CC(C)(C)c1cc(C=C(C#N)C#N)cc(Br)c1O [AG1024] | marked decrease | marked decrease |  |  |  | 
2 | O=C(O)CN(CCN(CC(=O)O)CC(=O)O)CC(=O)O [EDTA] |  | inhibited the adhesion | easily detach | easily detach | easily detached | 
3 | COc1ccc(C2CC(c3c(O)cc(C)oc3=O)=NCCS2)c(OC)c1 (stereo not drawn) [KF38789] |  |  |  |  |  | significantly inhibited
4 | CCCCCCCCCCCCCCCC(=O)N[C@H](CN1CCOCC1)[C@H](O)c1ccccc1 [PPMP] | had no effect | had no effect |  |  |  | 
5 | O=c1c(-c2ccc(O)cc2)coc2cc(O)cc(O)c12 [genistein] | marked decrease | marked decrease |  |  |  | 
6 | [Na+].[O-][Cl+2]([O-])[O-] [sodium chlorate] | did not alter the binding activity | did not alter the binding activity |  |  |  | 
7 | trypsin | almost completely abolished the adhesion | almost completely abolished the adhesion |  |  |  | 
